This is an account of results in PubChem BioAssay (NCI).

What all share (experiment): DTP human tumour cell line panel, 48 h
Test [1] deals with DLD-1 colon.
The subject of test [2] is DMS 114 small cell lung.
The test system of test [3] is DMS 273 small cell lung.
Test [4] has as its system DU-145 prostate.
Test [5] relates to HOP-18 NSCLC.
In test [6] the test system is KM20L2 colon.
In test [7] the test system is LXFL 529 NSCLC.
Test [8] relates to MOLT-4 leukemia.
The subject of test [9] is SNB-78 CNS.
For test [10], the system named is HOP-92 NSCLC.
Test [11] has as its system M19-MEL melanoma.
The subject of test [12] is XF 498 CNS.

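1) Cells in 96-well plates. 2) Compound, 48 h, 5 concentrations. 3) Linear interpolation between surrounding doses. 4) Unreached endpoint = highest concentration. The concentration for 50% growth inhibition is given as GI50. TGI denotes the concentration required for complete inhibition of growth.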

As usually defined, the TGI is the concentration at which net growth stops. For the compound `COc1cccc2c1C1(O)C2CCCCCCCCCC12OCCCO2` (centres undefined), the TGI in [1], in [2], in [3], in [4], in [5] and in test [6] was greater than 100 µM throughout. The TGI in test [7], in test [8] and in test [9] was greater than 100 µM throughout.

Regarding `N#C/C(c1nc2ccccc2[nH]1)=c1\s/c(=C(/N)O)c(=N)n1-c1ccccc1`, the TGI in test [1], in test [2], in test [3], in [10], in [6] and in [7] was greater than 100 µM throughout. For the same compound, the TGI in [11], in test [8], in test [9] and in test [12] was greater than 100 µM in each case.

`[N-]=[N+]=NC1(c2ccccc2)C(=O)C(Cl)=C(c2ccccc2)N(c2ccccc2)C1=O` (centres undefined): the total growth inhibition concentration (TGI) in test [1], in test [2], in test [3], in test [5], in [10] and in [6] was greater than 100 µM throughout. In addition, the TGI in [7], in [11], in test [8] and in test [9] was greater than 100 µM each time.

With `O=C(c1ccco1)N(C(=S)N1CCN(c2ccccc2)CC1)C1CCCCC1`, the TGI in [1], in [2], in test [3], in test [5], in [10] and in test [6] was greater than 100 µM each time. Also, the TGI in test [7], in test [11], in test [8] and in test [9] was greater than 100 µM in each case.

Turning to `COc1cc2c(oc(=O)c3c4occc4cc(OC)c23)c2cccc(OCc3ccccc3)c12`, the TGI in test [1], in [2], in test [3], in test [5], in test [10] and in test [6] was greater than 100 µM in each case. The TGI in test [7], in test [11], in test [8], in test [9] and in test [12] was greater than 100 µM throughout.

`O=C1C2=Cc3ccccc3OC2(O)Oc2ccccc21` (centres undefined): the TGI in test [4], in test [10] and in [8] was greater than 100 µM in each case.

As for `CCOC(=O)Nc1sc2c(c1C#N)CC(C)CC2` (centres undefined), the TGI in [4], in [10] and in test [8] was greater than 100 µM throughout.

Consider `CCc1c2cc(OC)c(OC)cc2cc2c3cc(OC)c(OC)cc3cc[n+]12` (tested in a mixture with another compound), for which the TGI in test [1] was greater than 100 µM; in test [2], 63.1 µM; in test [3], greater than 100 µM; in [4], greater than 54.8 µM; in test [5] it was greater than 100 µM; in [10] it was greater than 80 µM. For the same compound, the TGI in [6] is greater than 100 µM; in [7] it was greater than 76.3 µM; in test [11], greater than 92.7 µM; in [8], greater than 100 µM; in test [9], greater than 100 µM; in test [12], 33.6 µM.

With `O=C(O)Cc1ccc(Nc2nc3ccccc3nc2C(=O)O)cc1`, the TGI in test [4], in test [10] and in test [8] was greater than 100 µM each time.

On to `COc1ccc2c(c1)CC1COc3cc(OC)ccc3C1O2` (centres undefined), for which the TGI in test [4], in test [10] and in test [8] was greater than 100 µM each time.

For the compound `O=C(O)CCO/N=C1/C(c2c(O)[nH]c3ccccc23)=Nc2ccccc21`, the TGI in test [4] came out at 75.1 µM; in [10] it was 96.9 µM; in [8], 77.2 µM.

With `CCOC(=O)C(C)Sc1nnc(COc2ccc(Cl)cc2)n1-c1ccccc1` (centres undefined), the TGI in test [1] was 35.1 µM; in test [3] it was 29.9 µM; in test [5], greater than 100 µM; in [10], 44 µM; in test [6], 33 µM; in test [7] it was 30.4 µM. In addition, the TGI came out at 34.9 µM in test [11] and 95.2 µM in test [9].

The term GI50 denotes the concentration that inhibits growth by half. As to `Cc1ccc(/C=C2/N=C(N/N=C\C(O)C(O)C(O)CO)NC2=O)cc1` (centres undefined), the TGI in [4], in test [10] and in test [8] was greater than 100 µM throughout. In test [8], the GI50 was 46.2 µM.

Consider `CCOC(=O)c1nc2ccccc2nc1NCc1ccc(OC)c(OC)c1`, for which the TGI in [4], in [10] and in test [8] was greater than 100 µM each time.

On to `Cc1cn(C2C=CC(COP(=O)(OCc3ccc([N+](=O)[O-])o3)N(C)CCCCCl)O2)c(=O)[nH]c1=O` (centres undefined), for which the TGI in [4] came to 26.1 µM; in [10] it was 10.9 µM; in test [8] it was 26.4 µM.

For the compound `CNC(=O)N(CCC#N)CCN(C(=O)N(C)C)c1ccccc1`, the TGI in test [4], in test [10] and in test [8] was greater than 100 µM in each case.

Turning to `CC(=O)c1c(SCCN2CCOCC2)n(-c2ccccc2)c(=S)n(-c2ccccc2)c1=O`, the results for the TGI in [4], in [10] and in [8] were 22.7 µM, 30.5 µM and greater than 62.9 µM, respectively.

Turning to `N#CCCN(CCC#N)c1ccc(C(N=Nc2ccc(Cl)cc2)=Nc2ccccc2)cc1`, the TGI is 26.9 µM in test [4], 32.3 µM in [10] and 89.4 µM in test [8].
